Data published in patent US20030229134A1, “Methods for stimulating nervous system regeneration and repair by inhibiting phosphodiesterase type 4” (priority 2000, published 2003).

How the values were obtained:
[1] = test system: rats with moderate spinal cord contusion; experiment: Moderate contusive injury to the spinal cord; BBB test of hindlimb locomotion; assay type: in vivo, rat
Excerpt: A “BBB Score” is the result of a test developed by Basso, Beattie and Bresnahan as a modifed 21-point open field locomoter scale on which to measure the extent of recovery of motor function in rats with after spinal cord injury. See, e.g, Basso et al., J. Neurotrauma 13(7):343-59 (1996); Beattie et al. (1997), herein incorporated by reference.
Adult rat spinal cord were exposed and injured with a weight drop device (NYU). See Beattie et al. (1997) and Basso et al. (1996). At the same time as the injury was inflicted, rolipram was delivered subcutaneously via minipumps at 0.07 nmol/kg/hour for 2 weeks. One week after injury, Schwann cells, which had been grown and purified in culture, were injected into the lesion site along with 4 injections, each of 0.2 ul, of 1 mM dbcAMP. As a negative control, animals were injected with Schwann cells alone. Other animals were administered dbcAMP and Schwann cells. One group of animals was administered four injections, each of 0.2 ul, of 1 mM dbcAMP one week after injury. Another group was administered four injections, each of 0.2 ul, of 50 mM dbcAMP one week after injury. Another group was administered four injections, each of 0.2 ul, of 50 mM dbcAMP one day after injury. Animals were assessed on a weekly basis for hindlimb locomotion using the BBB test.

[2] = test system: cerebellar neurons on MAG-expressing Chinese hamster ovary (CHO) cells; experiment: Direct treatment of cerebellar neurons with rolipram; neurite outgrowth on MAG-expressing CHO cells; assay type: cell-based, rat
Method: Cerebellar neurons from P5 rats were isolated as described previously (Cai et al., 1999) Briefly, cerebellum was treated with 0.025% of trypsin, triturated and incubated for 10 min at 37° C. Trypsinization was stopped by adding an equal amount of DMEM containing 10% fetal calf serum (FCS). Cells were centrifuged at 800 rpm for 5 min. The cells were resuspended to a single-cell suspension in 2 ml of SATO (see Cai et al., 1999, herein incorporated by reference). The concentration of cells were adjusted to 6×10^4 cells/ml. […] Where indicated, dbcAMP (1 mM) or rolipram (0.1 uM, 0.25 uM, 0.5 uM or 1.0 uM) was added to the media. After 18 hours of culture, neurons were fixed and immunostained with a rabbit polyclonal antibody against […] (GAP43) to visualize the neurites. The length of the longest neurite of the first two hundred GAP43-positive neurons was determined using the Simple 32™ software (see Cai et al., 1999). The mean length of a neurite was determined and presented as the average length+/−SEM in micrometers (um). Results are expressed as a percentage of neurite length from neurons grown in the absence of dbcAMP or rolipram.

rat model of arthritis = settings: higher concentrations (5-10 and 20 umol/kg), rats; cited from earlier work
[3] = test system: DRG neurons on MAG-expressing CHO cells; experiment: Subcutaneous rolipram injections into P30 rats; neurite outgrowth of isolated DRG neurons on MAG-expressing CHO cells; assay type: in vivo, rat
Method: In order to determine whether a PDE4 specific inhibitor could be used to prime neurons in vivo and prevent inhibition of neurite outgrowth by myelin and MAG, rolipram was injected subcutaneously into P12 and P30 rats every 3 hours for 24 hours. For all experiments, rolipram was dissolved in DMSO and sterile saline was added to adjust the concentrations. The final volume of the rolipram solution was 0.2 ml for each injection. At each time point, a single rolipram injection was given. Rolipram was injected subcutaneously with insulin syringes (Becton Dickinson 1 ccU-100 insulin Syringe) under the skin of the rat's neck (for all experiments) and in various other regions (only for first experiment using P12 rats). Control animals were injected with a 0.2 ml mixture of DMSO and sterile saline without rolipram, following the same schedule.
In a second series of experiments, we injected increasing concentrations of rolipram subcutaneously into older animals (postnatal day 30; P30) every 3 hours for 24 hours and, as above, studied neurite outgrowth of isolated DRG neurons in the presence or absence of MAG.
DRG neurons were isolated from control and treated P30 animals and plated onto a monolayer of MAG-expressing CHO cells or a monolayer of control CHO cells. Neurons were cultured overnight before being fixed and immunostained for GAP43 to visualize the neurites, as described in Example 1. The length of the longest neurite per neuron from 180-200 neurons was measured. Results are expressed as a percentage of growth of the neurons isolated from control animals and are shown as the average length+/−SEM presented as a percentage of growth on control cells.
We next determined whether the effects of rolipram were time dependent. Rolipram (0.5 umol/kg) was administered by repeated subcutaneous injections to P30 rats for increasing amounts of time. DRG neurons were isolated from control and treated animals and plated onto a monolayer of MAG-expressing CHO cells or a monolayer of control CHO cells. Neurons were cultured overnight before being fixed and immunostained for GAP43 to visualize the neurites. The lengths of the longest neurite per neuron from 180-200 neurons were measured. Results are expressed as a percentage of growth of the neurons isolated from control animals and are shown as the average length+/−SEM presented as percentage of growth on control cells.

[4] = test system: cerebellar neurons on MAG-expressing CHO cells; experiment: Priming of cerebellar neurons with rolipram; neurite outgrowth on MAG-expressing CHO cells; assay type: cell-based, rat; settings: BDNF 200 ng/ml
Method: Isolated cerebellar neurons in SATO media (prepared as in Example 1) were plated onto poly-L-lysine-coated dishes at 1×10^6 cells/dish. Where indicated, either BDNF at a concentration of 200 ng/ml, or rolipram at a concentration 0.1 uM or 0.25 uM (all from Sigma) was added. After culture for 18 hours (termed priming), neurons were removed with 0.1% trypsin. Trypsinization was stopped by adding 5 ml of DMEM containing 10% FCS. The primed neurons were centrifuged at 800 rpm for 6 min and resuspended in SATO media. The concentration of cells were adjusted to 6×10^4 cells/ml. […] Myelin was prepared as described previously (Cai et al., 1999) from rat CNS white matter. Neurons were cultured overnight before being fixed and immunostained for GAP43 to visualize the neurites. The length of the longest neurite per neuron, from 180-200 neurons, was measured. Results are presented as the average length+/−SEM in micrometers (um). (See, e.g., U.S. Pat. Nos. 5,932,542 and 6,203,792).

hippocampal slices = settings: cited from earlier work

## COc1ccc(C2CNC(=O)C2)cc1OC1CCCC1 (centres unmarked) [rolipram]
[1]; adult rats, minipump s.c. 0.07 nmol/kg/hour for 2 weeks plus Schwann cells and 4 injections of 1 mM dbcAMP one week after injury, from 2 up to 7 weeks after injury
  motor skill recovery as measured by the BBB score: significantly improved
[1]; continuous rolipram plus Schwann cells and dbcAMP, greater than 15 is scored as complete recovery
  BBB score achieved: greater than 15
[2]; rolipram 0.25 uM-1.0 uM in media, 18 hours culture, P5 rat cerebellar neurons, FIG. 1
  inhibition of axonal outgrowth by MAG: partially blocks
[2]; rolipram 0.5 uM, comparator dbcAMP 1 mM
  efficiency of blocking the inhibition of axonal outgrowth by MAG compared to dibutyryl-cAMP: 80%
[2]; rolipram 0.1-1.0 uM
  dose dependence of the effect on MAG inhibition of axonal outgrowth: dose-dependent
Rat model of arthritis
  side effects: No side effects
[3]; 0.5 umol/kg intermittent s.c. injections every three hours
  length of the neurites, 1, 2 and 3 days of treatment compared: no significant difference
[3]; 0.5 umol/kg repeated s.c. injections, FIG. 5
  length of the axons of DRG neurons, 24 hours treatment in comparison to 6 hours: increased
[3]; 0.1-2.0 umol/kg s.c. every 3 hours for 24 hours, FIG. 4
  inhibition of axonal outgrowth by MAG: blocked (i.e., relieved) by rolipram in a dose-dependent manner
[3]; s.c. every 3 hours for 24 hours
  most effective subcutaneous dose for relieving MAG inhibition: 0.5 µmol/kg
[4]; priming 18 hours with rolipram 0.25 uM, FIG. 2
  blocking inhibition of axonal outgrowth by MAG after priming, compared with BDNF priming: almost as effective as priming cerebellar neurons with BDNF
[4]; priming with rolipram 0.25 uM
  length of neurites on monolayer of CHO cells expressing MAG, as % of length of neurons treated with BDNF: 95%
Hippocampal slices; 1.0-3.0 umol/kg
  basal cAMP levels: Increased basal cAMP levels
Hippocampal slices; up to 0.3 umol/kg
  basal cAMP levels in hippocampal slices: did not raise basal cAMP levels
